# Tests used:
# [1] = molecular target: T1, engineered chimeric LGIC receptor SEQ ID NO:41 (as SEQ ID NO:33, further comprising the β1-β2 loop domain from GlyRα1) (Homo sapiens, UniProt P36544, F159M/H163T/I152M/K68T/N69T/Q70M/R155K/V154L/W156N/Y151P); experiment: Two electrode voltage clamp currents in Xenopus oocytes expressing the receptor; format: cell-based; details: FIG. 5
# T1 construct: expressed in transfected cells; host or cells: Xenopus oocytes (cDNA injection)
# Protocol: (§1) For Xenopus oocyte studies, injections of cDNAs encoding for ion channels at a final concentration of 0.04 μg/μL were performed using a proprietary automated injection device and receptor expression examined at least two days later. Oocytes were poked with two electrodes and their membrane potential maintained at −80 mV throughout the experiment. All recordings were performed at 18° C. and cells were superfused with OR2 medium containing in mM: NaCl 82.5, KCl 2.5, HEPES 5, CaCl2.2H2O 1.8, MgCl2.6H2O 1, pH 7.4. Recordings progressed if oocytes had sufficiently low holding current, in which case they were then subjected to ligand or test compound application (5-10 s wash intervals), with 100 s of wash in between doses. Currents evoked by acetylcholine or other agonists were recorded using an automated process equipped with standard two electrode voltage clamp configuration (TEVC). Data were captured and analyzed using HiQScreen proprietary data acquisition and analysis software running under Matlab (Mathworks Inc.). Acetylcholine was prepared as a concentrated stock solution (10-1 M) in water and then diluted in the recording medium to obtain the desired test concentration. Nicotine was diluted in water as stock solution (10-1 M), kept frozen and diluted immediately prior to the experiment at the desired concentration. Compounds were prepared as stock solution (10-1M) in OR2 and then diluted in the recording medium to obtain the desired test concentration. Stock solution for Compound-1 was made in OR2 at pH 5 adjusted with HCl. To assess that dilution at the final concentration of this stock solution introduced no significant changes, the pH of the final solution was confirmed using a colorimetric assay (Galietta L. J. V., et al. 2001. FEBS Letters 499: 220-224. Kruger W., et al. (2005). Neuroscience Letters 380: 340-345.)
# (§2) To better understand the impact of the heterologous domains that had been inserted into the channels, the ligand-dependent response profiles of wild type α7-nAChR and various engineered chimeric LGIC receptors to acetylcholine as well as to non-native ligands TC-6987, AZD-0328, and Facinicline/RG3487 were assessed. Receptors were transiently expressed in […] cells and currents were measured on an automated patch clamp system (Fluxion Biosciences) following 1 second addition of drug. Inclusion of a GlyRα1 Cys-loop sequence in the extracellular domain increased the potency of all small molecules on the engineered receptor (leftward shift in EC50) (e.g. SEQ ID NO:35, FIG. 4C vs SEQ ID NO:16, FIG. 4B). […] Inclusion of both the Cys-loop and β1-β2 loop sequences of GlyRα1 in the extracellular domain reduced the sensitivity by about 1 log from that observed with the full Cys-loop sequence alone, but further increased conductance approximately 2-fold and slowed the rate of deactivation of the channel (SEQ ID NO:41, FIG. 4E vs. SEQ ID NO:33, FIG. 4D).
# [2] = molecular target: T2, engineered chimeric LGIC receptor SEQ ID NO:33 (α7-nAChR ligand binding domain with GlyRα1 Cys-loop, GlyRα1 ion pore domain) (Homo sapiens, UniProt P36544, F159M/H163T/I152M/R155K/V154L/W156N/Y151P); experiment: as above; format: cell-based; details: Xenopus oocytes; FIG. 5
# T2 construct: expressed in transfected cells; host or cells: Xenopus oocytes (cDNA injection)
# Protocol: as §1, §2
# T2 sequence (P36544 with tags, fused parts or gaps Y151P/I152M/V154L/R155K/W156N/F159M/H163T): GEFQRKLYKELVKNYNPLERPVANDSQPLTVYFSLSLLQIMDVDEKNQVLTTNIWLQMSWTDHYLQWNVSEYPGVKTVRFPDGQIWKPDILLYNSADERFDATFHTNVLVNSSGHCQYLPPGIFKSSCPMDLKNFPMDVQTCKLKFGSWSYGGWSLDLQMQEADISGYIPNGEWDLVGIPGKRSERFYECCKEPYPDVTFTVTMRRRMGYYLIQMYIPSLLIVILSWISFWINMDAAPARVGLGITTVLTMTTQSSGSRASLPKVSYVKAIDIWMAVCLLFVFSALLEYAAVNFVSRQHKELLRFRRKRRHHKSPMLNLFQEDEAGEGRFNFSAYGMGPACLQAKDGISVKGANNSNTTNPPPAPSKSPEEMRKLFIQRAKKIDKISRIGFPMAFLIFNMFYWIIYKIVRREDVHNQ
# T1 sequence (P36544 with tags, fused parts or gaps K68T/N69T/Q70M/Y151P/I152M/V154L/R155K/W156N/F159M/H163T): as the sequence (P36544 with tags, fused parts or gaps Y151P/I152M/V154L/R155K/W156N/F159M/H163T) above, with K46T, N47T, Q48M counted along it
smiles,measurement,setting,value
c1cnc2c(c1)C[C@@]1(CN3CCC1CC3)O2 [AZD-0328],sensitivity of SEQ ID NO:41 to ligand compared with wild type α7-nAChR,[1],comparably sensitive
same,fold more sensitive than wild type α7-nAChR,[2],approximately 3 fold

# From US10538571B2, “Compositions and methods for neurological diseases” (Coda Biotherapeutics, Inc., priority 2017, dated 2020)
